Test results reported in ChEMBL document CHEMBL4431396, “Novel Autotaxin Inhibitors for the Treatment of Osteoarthritis Pain: Lead Optimization via Structure-Based Drug Design” (ACS Med Chem Lett, 2016).

Columns and labels:
Format in all cases: ADME, organism-based
[1] = Volume of distribution at steady state in rat at 1 mg/kg, iv; settings: in vivo, read-out: Vdss
[2] = Oral bioavailability in rat at 10 mg/kg administered as single dose; settings: in vivo
[3] = Half life in rat at 1 mg/kg, iv; settings: in vivo
[4] = AUC in rat at 10 mg/kg, po administered as single dose; settings: in vivo
[5] = Cmax in rat at 10 mg/kg, po administered as single dose; design: dose 10 mg/kg, route oral; settings: in vivo
Rattus norvegicus = assay: Time duration for plasma concentration stays above in vitro IC80 level in rat at 10 mg/kg, po administered as single dose; settings: in vivo

Vd [1]: 1.4 L/kg
bioavailability [2]: 23%
half-life [3]: 1.14 h
AUC [4]: 3.44 µM·h
Cmax [5]: 660 nM
Time (Rattus norvegicus): > 12 h
Compound: O=C(COCCc1cnn[nH]1)N1Cc2cnc(NC3Cc4ccccc4C3)nc2C1
